In patent publication US6737383B1, “Herbicidal oxadiazolidines” (priority 1999, dated 2004):

Legend:
blackgrass = assay: Test B pre/postemergence blackgrass; format: in vivo, Alopecurus myosuroides
Summary of the method: (§1)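 Test chemicals in a non-phytotoxic solvent mixture with surfactant were sprayed preemergence onto planted seeds and postemergence onto plants 2 to 18 cm tall (1- to 4-leaf stage). After twelve to sixteen days in a greenhouse, injury was visually rated against untreated controls from 0 (no effect) to 10 (complete control).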

surinam grass = assay: Test B pre/postemergence surinam grass; format: in vivo, Brachiaria decumbens
Summary of the method: as §1

cocklebur = assay: Test B pre/postemergence cocklebur; format: in vivo, Xanthium strumarium
Summary of the method: as §1

corn = assay: Test B pre/postemergence corn; format: in vivo, Zea mays
Summary of the method: as §1

crabgrass = assay: Test B pre/postemergence crabgrass; format: in vivo, Digitaria sanguinalis
Summary of the method: as §1

giant foxtail = assay: Test B pre/postemergence giant foxtail; format: in vivo, Setaria faberii
Summary of the method: as §1

morningglory = assay: Test B pre/postemergence morningglory; format: in vivo, Ipomoea hederacea; conditions: for Plant response rating, Morningglory: scale of 0 to 10 where 0 is no effect and 10 is complete control
Summary of the method: as §1

pigweed = assay: Test B pre/postemergence pigweed; format: in vivo, Amaranthus retroflexus; conditions: for Plant response rating, Redroot pigweed: scale of 0 to 10 where 0 is no effect and 10 is complete control
Summary of the method: as §1

rape = assay: Test B pre/postemergence rape; format: in vivo, Brassica napus; conditions: for Plant response rating, Rape: scale of 0 to 10 where 0 is no effect and 10 is complete control
Summary of the method: as §1

soybean = assay: Test B pre/postemergence soybean; format: in vivo, Glycine max; conditions: for Plant response rating, Soybean: scale of 0 to 10 where 0 is no effect and 10 is complete control
Summary of the method: as §1

sugar beet = assay: Test B pre/postemergence sugar beet; format: in vivo, Beta vulgaris; conditions: for Plant response rating, Sugarbeets: scale of 0 to 10 where 0 is no effect and 10 is complete control
Summary of the method: as §1

velvetleaf = assay: Test B pre/postemergence velvetleaf; format: in vivo, Abutilon theophrasti; conditions: for Plant response rating, Velvetleaf: scale of 0 to 10 where 0 is no effect and 10 is complete control
Summary of the method: as §1

wheat = assay: Test B pre/postemergence wheat; format: in vivo, Triticum aestivum; conditions: for Plant response rating, Wheat: scale of 0 to 10 where 0 is no effect and 10 is complete control
Summary of the method: as §1

wild oat = assay: Test B pre/postemergence wild oat; format: in vivo, Avena fatua; conditions: for Plant response rating, Wild oats: scale of 0 to 10 where 0 is no effect and 10 is complete control
Summary of the method: as §1

purple nutsedge = assay: Test B pre/postemergence purple nutsedge; format: in vivo, Cyperus rotundus; conditions: for Plant response rating, Nutsedge: scale of 0 to 10 where 0 is no effect and 10 is complete control
Summary of the method: as §1

rice = assay: Test B flood test rice; format: in vivo, Oryza sativa
Summary of the method: (§2)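 Plants were grown to the 2-leaf stage before treatment with test chemical, then held in a greenhouse for twelve to sixteen days. Injury was visually rated against untreated controls on a 0–10 scale, where 0 is no effect and 10 is complete control.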

smallflower flatsedge = assay: Test B flood test smallflower flatsedge; format: in vivo, Cyperus difformis
Summary of the method: as §2

duck salad = assay: Test B flood test duck salad; format: in vivo, Heteranthera limosa
Summary of the method: as §2

bamyardgrass = assay: Test B flood test barnyardgrass; format: in vivo, Echinochloa crus-galli
Summary of the method: as §2

[1] = Postemergence, Rate 250 g/ha, scale 0 to 10
[2] = Postemergence, Rate 500 g/ha, scale of 0 to 10 where 0 is no effect and 10 is complete control
[3] = Preemergence, Rate 62 g/ha, scale of 0 to 10 where 0 is no effect and 10 is complete control
[4] = Preemergence, Rate 125 g/ha, scale of 0 to 10 where 0 is no effect and 10 is complete control
[5] = Preemergence, Rate 250 g/ha, scale 0 to 10, 0 is no effect, 10 is complete control
[6] = Preemergence, Rate 500 g/ha, scale 0 to 10, 0 is no effect, 10 is complete control
[7] = Rate 62 g/ha, Postemergence, scale 0 to 10 (0 no effect, 10 complete control)
[8] = Rate 125 g/ha, Postemergence, scale 0 to 10, 0 is no effect, 10 is complete control
[9] = Rate 62 g/ha, flood test species, Pre-emergence, visual evaluation after twelve to sixteen days
[10] = Rate 125 g/ha, under heading Pre-emergence, flood test species, visual evaluation after twelve to sixteen days
[11] = Rate 250 g/ha, Pre-emergence (flood test species), scale 0 to 10, 0 is no effect, 10 is complete control
[12] = Rate 500 g/ha, Pre-emergence, flood test species, scale 0 to 10 (0 no effect, 10 complete control)

Compound: COC(OC)C(C)n1c(=O)on(C(=O)N(c2ccc(F)cc2F)C(C)C)c1=O (stereo not shown) [Compound 472]
- Blackgrass plant response rating (blackgrass; [1]): 2
- Blackgrass plant response rating (blackgrass; [2]): 8
- Plant response rating, Blackgrass (blackgrass; [3]): 9
- Plant response rating, Blackgrass (blackgrass; [4]): 9
- Blackgrass plant response rating (blackgrass; [5]): 10
- Blackgrass plant response rating (blackgrass; [6]): 10
- Blackgrass plant response rating (blackgrass; [7]): 0
- Blackgrass plant response rating (blackgrass; [8]): 0
- B. signalgrass plant response rating (surinam grass; Postemergence, Rate 250 g/ha, scale 0 to 10, 0 no effect, 10 complete control): 2
- B. signalgrass plant response rating (surinam grass; [2]): 5
- Plant response rating, B. signalgrass (surinam grass; [3]): 3
- Plant response rating, B. signalgrass (surinam grass; [4]): 9
- B. signalgrass plant response rating (surinam grass; [5]): 9
- B. signalgrass plant response rating (surinam grass; [6]): 10
- B. signalgrass plant response rating (surinam grass; [7]): 0
- B. signalgrass plant response rating (surinam grass; [8]): 0
- Cocklebur plant response rating (cocklebur; [1]): 0
- Cocklebur plant response rating (cocklebur; [2]): 1
- Plant response rating, Cocklebur (cocklebur; [3]): 0
- Plant response rating, Cocklebur (cocklebur; [4]): 0
- Cocklebur plant response rating (cocklebur; [5]): 0
- Cocklebur plant response rating (cocklebur; [6]): 2
- Cocklebur plant response rating (cocklebur; [7]): 0
- Cocklebur plant response rating (cocklebur; [8]): 0
- Corn plant response rating (corn; [1]): 0
- Corn plant response rating (corn; [2]): 3
- Plant response rating, Corn (corn; [3]): 0
- Plant response rating, Corn (corn; [4]): 0
- Corn plant response rating (corn; [5]): 2
- Corn plant response rating (corn; [6]): 7
- Corn plant response rating (corn; [7]): 0
- Corn plant response rating (corn; [8]): 0
- Crabgrass plant response rating (crabgrass; [1]): 8
- Crabgrass plant response rating (crabgrass; [2]): 8
- Plant response rating, Crabgrass (crabgrass; [3]): 9
- Plant response rating, Crabgrass (crabgrass; [4]): 9
- Crabgrass plant response rating (crabgrass; [5]): 10
- Crabgrass plant response rating (crabgrass; [6]): 10
- Crabgrass plant response rating (crabgrass; [7]): 7
- Crabgrass plant response rating (crabgrass; [8]): 7
- Giant foxtail plant response rating (giant foxtail; [1]): 8
- Giant foxtail plant response rating (giant foxtail; [2]): 8
- Plant response rating, Giant foxtail (giant foxtail; [3]): 10
- Plant response rating, Giant foxtail (giant foxtail; [4]): 10
- Giant foxtail plant response rating (giant foxtail; [5]): 10
- Giant foxtail plant response rating (giant foxtail; [6]): 10
- Giant foxtail plant response rating (giant foxtail; [7]): 7
- Giant foxtail plant response rating (giant foxtail; [8]): 7
- Morningglory plant response rating (morningglory; [1]): 4
- Plant response rating, Morningglory (morningglory; Preemergence, Rate 62 g/ha): 0
- Plant response rating, Morningglory (morningglory; Preemergence, Rate 125 g/ha): 0
- Morningglory plant response rating (morningglory; [5]): 0
- Morningglory plant response rating (morningglory; [6]): 5
- Morningglory plant response rating (morningglory; [7]): 3
- Morningglory plant response rating (morningglory; [8]): 3
- Redroot pigweed plant response rating (pigweed; [1]): 3
- Plant response rating, Redroot pigweed (pigweed; Preemergence, Rate 62 g/ha): 10
- Plant response rating, Redroot pigweed (pigweed; Preemergence, Rate 125 g/ha): 10
- Redroot pigweed plant response rating (pigweed; [5]): 10
- Redroot pigweed plant response rating (pigweed; [6]): 10
- Redroot pigweed plant response rating (pigweed; [7]): 0
- Redroot pigweed plant response rating (pigweed; [8]): 2
- Rape plant response rating (rape; [1]): 0
- Plant response rating, Rape (rape; Preemergence, Rate 62 g/ha): 0
- Plant response rating, Rape (rape; Preemergence, Rate 125 g/ha): 0
- Rape plant response rating (rape; [5]): 0
- Rape plant response rating (rape; [6]): 4
- Rape plant response rating (rape; [7]): 0
- Rape plant response rating (rape; [8]): 0
- Soybean plant response rating (soybean; [1]): 2
- Plant response rating, Soybean (soybean; Preemergence, Rate 62 g/ha): 0
- Plant response rating, Soybean (soybean; Preemergence, Rate 125 g/ha): 0
- Soybean plant response rating (soybean; [5]): 0
- Soybean plant response rating (soybean; [6]): 3
- Soybean plant response rating (soybean; [7]): 2
- Soybean plant response rating (soybean; [8]): 2
- Sugarbeets plant response rating (sugar beet; [1]): 0
- Plant response rating, Sugarbeets (sugar beet; Preemergence, Rate 62 g/ha): 1
- Plant response rating, Sugarbeets (sugar beet; Preemergence, Rate 125 g/ha): 2
- Sugarbeets plant response rating (sugar beet; [5]): 3
- Sugarbeets plant response rating (sugar beet; [6]): 6
- Sugarbeets plant response rating (sugar beet; [7]): 0
- Sugarbeets plant response rating (sugar beet; [8]): 0
- Velvetleaf plant response rating (velvetleaf; [1]): 2
- Plant response rating, Velvetleaf (velvetleaf; Preemergence, Rate 62 g/ha): 1
- Plant response rating, Velvetleaf (velvetleaf; Preemergence, Rate 125 g/ha): 3
- Velvetleaf plant response rating (velvetleaf; [5]): 3
- Velvetleaf plant response rating (velvetleaf; [6]): 7
- Velvetleaf plant response rating (velvetleaf; [7]): 0
- Velvetleaf plant response rating (velvetleaf; [8]): 0
- Wheat plant response rating (wheat; [1]): 0
- Plant response rating, Wheat (wheat; Preemergence, Rate 62 g/ha): 0
- Plant response rating, Wheat (wheat; Preemergence, Rate 125 g/ha): 0
- Wheat plant response rating (wheat; [5]): 0
- Wheat plant response rating (wheat; [6]): 0
- Wheat plant response rating (wheat; [7]): 0
- Wheat plant response rating (wheat; [8]): 0
- Wild oats plant response rating (wild oat; [1]): 0
- Plant response rating, Wild oats (wild oat; Preemergence, Rate 62 g/ha): 2
- Plant response rating, Wild oats (wild oat; Preemergence, Rate 125 g/ha): 5
- Wild oats plant response rating (wild oat; [5]): 8
- Wild oats plant response rating (wild oat; [6]): 10
- Wild oats plant response rating (wild oat; [7]): 0
- Wild oats plant response rating (wild oat; [8]): 0
- Nutsedge plant response rating (purple nutsedge; [1]): 0
- Plant response rating, Nutsedge (purple nutsedge; Preemergence, Rate 62 g/ha): 0
- Plant response rating, Nutsedge (purple nutsedge; Preemergence, Rate 125 g/ha): 0
- Nutsedge plant response rating (purple nutsedge; [5]): 0
- Nutsedge plant response rating (purple nutsedge; [6]): 10
- Nutsedge plant response rating (purple nutsedge; [7]): 0
- Nutsedge plant response rating (purple nutsedge; [8]): 0
- Plant response rating, Rice (0 to 10 scale, 0 is no effect, 10 is complete control) (rice; [9]): 0
- Rice plant response rating (0 to 10 scale, 0 is no effect, 10 is complete control) (rice; [10]): 0
- Rice plant response rating (rice; [11]): 0
- Rice plant response rating (rice; [12]): 0
- Plant response rating, S. Flatsedge (0 to 10 scale, 0 is no effect, 10 is complete control) (smallflower flatsedge; [9]): 0
- S. Flatsedge plant response rating (0 to 10 scale, 0 is no effect, 10 is complete control) (smallflower flatsedge; [10]): 0
- S. Flatsedge plant response rating (smallflower flatsedge; [11]): 0
- S. Flatsedge plant response rating (smallflower flatsedge; [12]): 0
- Plant response rating, Ducksalad (0 to 10 scale, 0 is no effect, 10 is complete control) (duck salad; [9]): 0
- Ducksalad plant response rating (0 to 10 scale, 0 is no effect, 10 is complete control) (duck salad; [10]): 0
- Ducksalad plant response rating (duck salad; [11]): 0
- Ducksalad plant response rating (duck salad; [12]): 0
- Plant response rating, Barnyardgrass (0 to 10 scale, 0 is no effect, 10 is complete control) (bamyardgrass; [9]): 0
- Barnyardgrass plant response rating (0 to 10 scale, 0 is no effect, 10 is complete control) (bamyardgrass; [10]): 0
- Barnyardgrass plant response rating (bamyardgrass; [11]): 0
- Barnyardgrass plant response rating (bamyardgrass; [12]): 0
